In patent US20240408170A1, “COMPOSITION FOR DECOMPOSITION OF TRYPSIN OR TMPRSS2” (Riken, priority 2021, published 2024):

How the values were obtained:
recombinant mouse PRSS2 [1] = biological target: T1, recombinant mouse PRSS2 (Mus musculus, UniProt P07146); assay: Trypsin decomposition in vitro by bacteria (western blot); format: biochemical; settings: for trypsin-decomposing ability of P. clara (1C4) after pretreating rmPRSS2 with protease inhibitor: rmPRSS2 pretreated 30 minutes with inhibitor; for decomposition of rmPRSS2 (western blot): bacteria or culture supernatant incubated with recombinant mouse trypsin
T1 construct: purchased Sino Biological, Inc. 50383-M08H
T1 sequence (P07146 24-246): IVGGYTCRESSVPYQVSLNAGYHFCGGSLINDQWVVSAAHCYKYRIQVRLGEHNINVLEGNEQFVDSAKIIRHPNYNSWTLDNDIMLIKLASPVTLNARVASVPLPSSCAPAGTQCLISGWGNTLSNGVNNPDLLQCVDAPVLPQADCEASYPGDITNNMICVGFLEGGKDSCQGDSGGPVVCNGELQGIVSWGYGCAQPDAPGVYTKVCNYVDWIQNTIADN
Description: Mouse faecal samples were suspended and diluted 50-fold with phosphate buffered saline (PBS) to which a protease inhibitor cocktail (Roche) was added. Subsequently, the suspended sample was centrifuged at 15,000×g for 10 minutes at 4° C., and the supernatant was subjected to western blot. Mouse pancreatic tissue was rapidly frozen in liquid nitrogen. Proteins were extracted by TRIzol Reagent (Thermo Fisher Scientific K.K.), and the final protein concentration was adjusted to 4 μg/μL. For SDS-PAGE and blotting, Novex (registered trademark) NuPAGE (registered trademark) SDS-PAGE Gel system (Thermo Fisher Scientific K.K.) and iBlot™ 2 Dry Blotting System (Thermo Fisher Scientific K.K.) were used according to the manufacturer's instructions.
The bacteria cultured overnight were incubated with recombinant mouse trypsin (final concentration: 1 μg/mL) for 1 hour or with human trypsin (final concentration: 20 μg/mL) for 4 hours. Recombinant trypsin isoforms used were as follows: recombinant mouse PRSS2 (50383-M08H, Sino Biological, Inc.), recombinant human PRSS1 (LS-G135640), recombinant human PRSS2 (LS-G20167), and recombinant human PRSS3 (His-tag) (NBP2-52220).
In some experiments, recombinant mouse PRSS2 was first treated with one of the following trypsin inhibitors for 30 minutes before incubation with a P. clara culture solution. AEBSF (Sigma-Aldrich, final concentration: 2 mM), Leupeptin (Sigma-Aldrich, final concentration: 100 μM), and TLCK (Abcam plc., final concentration: 100 μM).
In some experiments, P. clara was cultured overnight in the presence of Tunicamycin (Sigma-Aldrich, final concentration: 10 μg/mL), 2-Fluoro-L-fucose (Cayman Chemical Company, final concentration: 250 μM), or the corresponding DMSO control, before incubation with recombinant mouse PRSS2.
In the experiment of evaluating the effect of Ca^2+, P. clara was cultured in a low Ca^2+ mGAM medium supplemented with or without 1 mM of Ca^2+, before incubation with recombinant mouse PRSS2. In the experiment in which the supernatant of P. clara was used, P. clara cultured overnight was filtered through a sterilization filter unit formed using a PVDF film having a pore size of 0.22 μm.

trypsin = assay: Faecal trypsin activity of GF mice colonized by human microbiota, isolated strain mixtures or P. clara strains; format: in vivo, mouse; settings: GF+C#5 mice, antibiotic via drinking
Description: Mouse intestinal contents or a mice faecal sample was diluted 500-fold (w/v) with a 0.9% NaCl solution. Human faeces were diluted 200-fold (w/v) with a 0.9% NaCl solution. The diluted solution was vortexed in a mini shaker for 20 minutes at 2,000 rpm, homogenized by pipetting, and then centrifuged at 10,000×g for 15 minutes at 4° C. Subsequently, the supernatant was recovered to measure the trypsin activity by a Trypsin Activity Assay Kit (Colorimetric) for 100 tests (ab102531) according to the manufacturer's protocol. The absorbance at 405 nm was measured in a kinetic mode by using a PerkinElmer 2030 Multilabel Reader.
Human faecal samples were collected at RIKEN and Keio University according to a research protocol approved by the Research Ethics Review Committee. Informed consent was obtained from each subject. A human faecal sample (preserved in 20% (v/v) glycerol) was transferred to an anaerobic chamber, thawed, and then sieved with a 100 μm mesh, transferred to a GF isolator, and orally administered to GF mice by 200 μL/mouse.
For an antibiotic treatment, each solution of 0.5 g/L ampicillin (Nacalai Tesque, Inc.), 0.5 g/L metronidazole (Nacalai Tesque, Inc.), and 1.0 g/L tylosin (Sigma-Aldrich) was produced with autoclaved tap water. The antibiotic solution was given, for 12 days, to mice to which the faecal contents derived from a donor C were orally administered. The antibiotic solution was changed once a week.
The isolated strains except for Phasolactobacterium faecium (3G4) were cultured in an anaerobic chamber at a temperature of 37° C. for 1 to 2 days. Phasolactobacterium faecium was cultured for 2 to 3 days in an Oxoid CM0619 agar plate to which 80 mM sodium succinate was added. The colonies were recovered and resuspended in EGEF. The bacterial density was adjusted based on an OD600 value, and the mixture of the cultured strains was orally administered to GF mice (150 μL/mouse, total bacterial count: about 1 to 2×10^8 CFU).

IgA heavy chain = assay: Ex vivo incubation of mouse faeces at 37° C. for 48 hours, western blot; settings: GF faeces mixed with 2-mix+WT faeces, trypsin inhibitor added
Description: Mouse faecal samples were suspended and diluted 50-fold with phosphate buffered saline (PBS) to which a protease inhibitor cocktail (Roche) was added. Subsequently, the suspended sample was centrifuged at 15,000×g for 10 minutes at 4° C., and the supernatant was subjected to western blot. Mouse pancreatic tissue was rapidly frozen in liquid nitrogen. Proteins were extracted by TRIzol Reagent (Thermo Fisher Scientific K.K.), and the final protein concentration was adjusted to 4 μg/μL. For SDS-PAGE and blotting, Novex (registered trademark) NuPAGE (registered trademark) SDS-PAGE Gel system (Thermo Fisher Scientific K.K.) and iBlotTM 2 Dry Blotting System (Thermo Fisher Scientific K.K.) were used according to the manufacturer's instructions. The antibodies used are as follows. A rabbit anti-mouse PRSS2 antibody (Cosmo Bio Co., Ltd.), a rabbit anti-mouse HSP90 antibody (#4877, Cell Signaling Technology, Inc.), a rabbit anti-human PRSS2 antibody (LS-B15726, LSBio), a rabbit anti-human PRSS1 antibody (LS-331381, LSBio), a rabbit anti-mouse TMPRSS2 antibody (LS-C373022, LSBio, against the sequence of the protease domain), a rabbit anti-6-His antibody ([…]-[…], Bethyl Laboratories, Inc.), a goat anti-mouse IgA a chain antibody (HRP) (ab97235, Abcam plc.), a rat anti-mouse κ chain antibody (HRP) (ab99632, Abcam plc.), a rabbit anti-mouse CELA3b antibody (OACD03205, Aviva Systems Biology Corporation), an anti-rabbit IgG antibody (HRP) (#7074, Cell Signaling Technology, Inc.), and a rabbit anti-mouse Reg3 antibody (51153-[…], Sino Biological, Inc.).

recombinant mouse PRSS2 [2] = biological target: T1, recombinant mouse PRSS2; assay: Binding of Alexa Fluor 488-labeled rmPRSS2 to the surface of bacteria (confocal microscope)
Description: Recombinant mouse PRSS2 was labeled with Alexa Fluor™ 488 using an Alexa Fluor™ 488 Antibody Labeling Kit (Δ20181, Thermo Fisher Scientific K.K.), and was pretreated with an AEBSF inhibitor (150 μg/mL rmPRSS2 with 20 mM AEBSF).
Mouse PRSS2 labeled with Alexa Fluor™ 488 was incubated in an anaerobic chamber for 20 minutes with bacteria cultured at a final concentration of 5 μg/mL. The mixture was centrifuged, washed once with PBS, and then resuspended in PBS. A Leica TCS SP8 confocal microscope was used for capturing a confocal image.

NCCc1ccc(S(=O)(=O)F)cc1 [AEBSF, reference compound]
trypsin-decomposing ability of P. clara (1C4) after pretreating rmPRSS2 with protease inhibitor (recombinant mouse PRSS2 [1]): lost

CC1(C)S[C@@H]2[C@H](NC(=O)[C@H](N)c3ccccc3)C(=O)N2[C@H]1C(=O)O [Amp, Ampicillin]
faecal trypsin activity (trypsin): more decreased

Cc1ncc([N+](=O)[O-])n1CCO [MNZ, metronidazole]
faecal trypsin activity (trypsin): no decrease

Cc1ccc(S(=O)(=O)N[C@@H](CCCCN)C(=O)CCl)cc1 [TLCK, reference compound]
trypsin-decomposing ability of P. clara (1C4) after pretreating rmPRSS2 with protease inhibitor (recombinant mouse PRSS2 [1]): lost
decomposition of IgA heavy chain in mixed faeces (IgA heavy chain): inhibited the decomposition of the IgA heavy chain

CC[C@H]1OC(=O)C[C@@H](O)[C@H](C)[C@@H](O[C@@H]2O[C@H](C)[C@@H](O[C@H]3C[C@@](C)(O)[C@@H](O)[C@H](C)O3)[C@H](N(C)C)[C@H]2O)[C@@H](CC=O)C[C@@H](C)C(=O)/C=C/C(C)=C/[C@@H]1CO[C@@H]1O[C@H](C)[C@@H](O)[C@@H](OC)[C@H]1OC [Tyl, tylosin]
faecal trypsin activity (trypsin): no decrease

CC(=O)N[C@@H](CC(C)C)C(=O)N[C@@H](CC(C)C)C(=O)N[C@H](C=O)CCCNC(=N)N [leupeptin, reference compound]
trypsin-decomposing ability of P. clara (1C4) after pretreating rmPRSS2 with protease inhibitor (recombinant mouse PRSS2 [1]): lost

Paraprevotella clara [P237E3b]
decomposition of rmPRSS2 (western blot) (recombinant mouse PRSS2 [1]): effect of reducing trypsin

Paraprevotella clara [P322B5]
decomposition of rmPRSS2 (western blot) (recombinant mouse PRSS2 [1]): effect of reducing trypsin

Paraprevotella xylaniphila [P. xylaniphila (JCM 14860) strain]
decomposition of rmPRSS2 (western blot) (recombinant mouse PRSS2 [1]): potent trypsin-reducing ability

Prevotella copri [reference compound]
decomposition of rmPRSS2 (western blot) (recombinant mouse PRSS2 [1]): did not decrease the trypsin activity

Prevotella denticola [reference compound]
decomposition of rmPRSS2 (western blot) (recombinant mouse PRSS2 [1]): did not decrease the trypsin activity
binding of rmPRSS2 to the surface of bacteria (recombinant mouse PRSS2 [2]): no accumulation of trypsin was observed

Prevotella muris [Prevotella muris strain]
decomposition of rmPRSS2 (western blot) (recombinant mouse PRSS2 [1]): had a trypsin-decomposing activity

Prevotella oulorum [reference compound]
decomposition of rmPRSS2 (western blot) (recombinant mouse PRSS2 [1]): did not decrease the trypsin activity
binding of rmPRSS2 to the surface of bacteria (recombinant mouse PRSS2 [2]): no accumulation of trypsin was observed

Prevotella rara [Prevotella rara (MSP 0081) strain]
decomposition of rmPRSS2 (western blot) (recombinant mouse PRSS2 [1]): had a trypsin-decomposing activity

Prevotella rodentium [Prevotella rodentium strain]
decomposition of rmPRSS2 (western blot) (recombinant mouse PRSS2 [1]): had a trypsin-decomposing activity

Prevotella stercorea [reference compound]
decomposition of rmPRSS2 (western blot) (recombinant mouse PRSS2 [1]): did not decrease the trypsin activity

tunicamycin [reference compound]
decomposition of rmPRSS2 by P. clara pretreated with sugar chain synthesis inhibitor (recombinant mouse PRSS2 [1]; P. clara cultured overnight with inhibitor): no decomposition of trypsin was observed
binding of rmPRSS2 to the surface of P. clara treated with sugar chain synthesis inhibitor (recombinant mouse PRSS2 [2]): no accumulation of trypsin on the surface
